Experimental data published in patent US20210085796A1, “ANTICANCER DRUGS AND METHODS OF MAKING AND USING SAME” (YALE UNIVERSITY, priority 2017, published 2021).
“Also recorded” adds a separate entry of the source.

What was measured:
[1] = Reductive activation / doxorubicin release in 5 mM GSH (LCMS); format: in vitro ADME; details: 50 μM, PBS pH 7.4, 5 mM GSH, 37° C.
Protocol: In certain embodiments, the prodrug releases the active form of the drug once inside a cancer cell. Once inside the cell, drug release can be triggered by reduction of the disulfide bond in the linker. To evaluate the reductive activation of drug release, 50 μM YU241528 in a solution of PBS, pH 7.4, containing 5 mM GSH (a typical intracellular concentration of the predominant biological reducing agent) was incubated at 37° C. Aliquots were taken at regular intervals and analyzed by LCMS.

[2] = test system: HeLa cells; test: pH-dependent cell uptake by flow cytometry; format: cell-based; details: 5 μM, 1 hour, pH 7.4 vs pH 6.5
Source text: FIGS. 5A-5B depict representative flow cytometry traces of pH-dependent cell treatments. […] Normalized cell counts (Y-axes) are plotted vs. doxorubicin fluorescence intensity per cell (X-axes).

[3] = Serum stability of prodrug (LCMS, 490 nm absorbance); format: in vitro ADME; details: 50 μM in PBS pH 7.4 with 20% mouse serum, 37° C., 6 hours of incubation
Protocol: FIG. 4A depicts liquid chromatography data showing the stability of YU241528 in serum.
The prodrug strategies of this invention are thought to impart their benefits during the distribution and cell uptake steps of anticancer therapy. In certain embodiments, a prodrug is stable in the blood for a period sufficient to allow for cell uptake and systemic clearance. To test this, 50 μM YU241528 in a solution of PBS, pH 7.4, containing 20% mouse serum was incubated at 37° C. At regular intervals, aliquots were taken and mixed with 2 volumes of ethanol to precipitate serum proteins, then centrifuged. Supernatants were analyzed by LCMS. […] The predominant peak was identified as YU241528 by mass spectrometry.

[4] = Blood levels after tail vein injection; format: in vivo, adult female balb/c mice
Protocol: Given that the drug's distribution and clearance can be expected to be substantially complete by about 6 hours after administration, in certain embodiments the peak intracellular dose is achieved long before this process might interfere to a significant degree, even assuming the altered metabolite is indeed compromised in its activity. […] In certain embodiments, the serum stability of YU241528 allows for effective therapy. […] In certain embodiments, the prodrug undergoes a different elimination path, as hepatobiliary elimination of weakly-ionic organic substances is sensitive to charge, size, and lipophilicity.

[5] = test system: MDA-MB-231 breast cancer cells; test: pH-dependent cell growth inhibition (CellTiter-Glo); format: cell-based, Human; details: 6 hours treatment at pH 7.4 or pH 6.2, then 72 hours growth
Protocol: Cells treated for 6 hours at pH 7.4 (normal physiological pH, X traces) or pH 6.2 (acidic solid tumor pH, Y traces) were subsequently allowed to grow in normal growth medium for 72 hours, then cell viability was evaluated using the CellTiter-Glo assay kit (Promega). Normalized percent cell growth inhibition is plotted on the left side of each panel and IC50 values reported at each pH from non-linear regression analysis.
(§1) In order to evaluate pH-dependent activity, treatments are performed at atypical cell culture conditions. […] Several cell lines have been evaluated using this method and for each, cell seeding density and treatment duration is independently experimentally determined. Each experiment is normalized to sham and complete activity controls for each pH condition.
Human MDA-MB-231 breast cancer cells seeded at low density on tissue culture treated 384-well plates, allowed to adhere and grow in serum-supplemented growth medium for 24 hours, then treated under pH-controlled conditions for 6 hours, and finally washed and grown in fresh growth media for 72 hours were assessed for cell survival using the CellTiter-Glo assay system (Promega) (FIG. 6).

[6] = cited from earlier work
[7] = test system: PEO1 ovarian cancer cells; test: pH-dependent cell growth inhibition, transient treatment; format: cell-based; details: for pH dependence of cell growth inhibition: pH 7.4 vs pH 6.2
Protocol: FIG. 9 depicts pH-dependent cell growth inhibition of PEO1 ovarian cancer cells in culture, treated transiently with various prodrugs of the invention, as described above.
FIG. 10 depicts pH-dependent cell growth inhibition of PEO1 ovarian cancer cells in culture, treated transiently with an anticancer kinase inhibitor drug, Osimertinib, or a compound of the invention, based on an active core of that drug, YU253673.
as §1
Similar results have been obtained from pH-dependent cell growth inhibition assays with other classes of Drug using the prodrug approach.

[8] = test system: EMT-6 flank tumors; test: In vivo efficacy and toxicity in EMT-6 flank tumor model; set-up: species or system Balb/c mice; details: IV once daily for 5 days
Source text: FIG. 7 depicts representative in vivo study on the efficacy and toxicity of compounds of the invention. […] Mean tumor volume and mean body weight graphs are shown for groups of 10 tumor-bearing mice.
FIG. 8 depicts the dose dependence of YU241531 (right panel) and YU244206 (left panel) treatments in the EMT-6 tumor model in Balb/c mice.

Compound | pH preference of cell uptake [2] | pH dependence of cell growth inhibition [5] | pH dependence of cell growth inhibition [7] | body weight loss compared to sham treated controls [8] | other results
8-((2-((((2S,3S,4S,6R)-3-hydroxy-2-methyl-6-(((1S,3S)-3,5,12-trihydroxy-3-(2-hydroxyacetyl)-10-methoxy-6,11-dioxo-1,2,3,4,6,11-hexahydrotetracen-1-yl)oxy)tetrahydro-2H-pyran-4-yl)carbamoyl)oxy)ethyl)disulfaneyl)-2,2-dimethyloctanoic acid [YU241528] | preferentially taken up by cells at cancerous pH 6.5 versus cells at normal pH 7.4 | – | – | – | t1/2 of reduction of the disulfide [1]: ~2.7 min; release of free doxorubicin / stability in serum [3]: no active doxorubicin is released; also recorded: no free doxorubicin was detected; also recorded: stable in serum; non-compartmental half-life in blood [4]: about 1 hour; level in the blood at 6 hours post injection ([4]; 6 hours): remains at detectable levels; level in the blood at 24 hours post injection ([4]; 24 hours): undetectable
COc1cccc2c1C(=O)c1c(O)c3c(c(O)c1C2=O)C[C@@](O)(C(=O)CO)C[C@@H]3O[C@H]1C[C@H](N)[C@H](O)[C@H](C)O1 [Doxorubicin, reference compound] | greater uptake into cells at normal physiologic pH 7.4 than into cells at cancerous pH 6.5 | greater growth inhibition at basic healthy pH | – | – | basic pKA of amine group [6]: ~8
C=CC(=O)Nc1cc(Nc2nccc(-c3cn(C)c4ccccc34)n2)c(OC)cc1N(C)CCN(C)C [Osimertinib, reference compound] | – | – | slightly lower IC50 value at healthy pH 7.4 | – | –
COc1cccc2c1C(=O)c1c(O)c3c(c(O)c1C2=O)C[C@@](O)(C(=O)CO)C[C@@H]3O[C@H]1C[C@H](NC(=O)OCCSSCCCCCCCC(=O)O)[C@H](O)[C@H](C)O1 [YU241531, 8-((2-((((2S,3S,4S,6R)-3-hydroxy-2-methyl-6-(((1S,3S)-3,5,12-trihydroxy-3-(2-hydroxyacetyl)-10-methoxy-6,11-dioxo-1,2,3,4,6,11-hexahydrotetracen-1-yl)oxy)tetrahydro-2H-pyran-4-yl)carbamoyl)oxy)ethyl)disulfaneyl)octanoic acid] | – | greater growth inhibition at acidic tumor pH | – | no detectable weight loss | –
COc1cccc2c1C(=O)c1c(O)c3c(c(O)c1C2=O)C[C@@](O)(C(=O)CO)C[C@@H]3O[C@H]1C[C@H](NC(=O)OCCSSCCCc2c(F)c(F)c(O)c(F)c2F)[C@H](O)[C@H](C)O1 [YU244206, 2-((3-(2,3,5,6-tetrafluoro-4-hydroxyphenyl)propyl)disulfaneyl)ethyl ((2S,3S,4S,6R)-3-hydroxy-2-methyl-6-(((1S,3S)-3,5,12-trihydroxy-3-(2-hydroxyacetyl)-10-methoxy-6,11-dioxo-1,2,3,4,6,11-hexahydrotetracen-1-yl)oxy)tetrahydro-2H-pyran-4-yl)carbamate] | – | greater growth inhibition at acidic tumor pH | – | no detectable weight loss | –
C=CC(=O)Nc1cc(Nc2nccc(-c3cn(C)c4ccccc34)n2)c(OC)cc1N(C)CCCc1c(F)c(F)c(O)c(F)c1F [YU253673, N-(4-methoxy-2-(methyl(3-(2,3,5,6-tetrafluoro-4-hydroxyphenyl)propyl)amino)-5-((4-(1-methyl-1H-indol-3-yl)pyrimidin-2-yl)amino)phenyl)acrylamide] | – | – | far greater activity at tumor pH 6.2 | – | cell growth inhibition at pH 6.2 ([7]; pH 6.2): potent cell growth inhibition; fold greater activity in tumor pH conditions compared with healthy pH conditions ([7]; pH 6.2 vs pH 7.4): more than 30 fold; cell growth inhibition at pH 7.4 ([7]; pH 7.4): no observed activity
